Consider two compounds from patent publication US20060073156A1, “Fosfomycin and n-acetylcysteine for the treatment of biofilms caused by escheric ia coli and other pathogens of the urinary tract” (ZAMBON GROUP S.P.A., priority 2002, published 2006).

Assay [1] deals with biofilms of P. aeruginosa. Particulars: Antimicrob. Agents Chemother., 35, 1258, (1991); cited from earlier work.
A further assay deals with Escherichia coli. The assay can be described thus: Bacterial growth of cultures with NAC added. It counts as cell-based. The settings on record: various concentrations of NAC added to the cultures; all E. coli strains tested.
Assay [2] concerns biofilm produced by Escherichia coli. The assay can be described thus: Disruption of biofilms: residual quantity of biofilm after treatment of initial (5 hours) and fully consolidated (48 hours) biofilms. The format is cell-based. Particulars: NAC alone; for reduction of mature biofilms: mature (48 hours) biofilms. As to the method: (§1) The effects of NAC and fosfomycin on the biofilm produced by Escherichia coli have been evaluated on four strains designated 169, 255, 1263 and 1293, from the Microbiological Collection of the Genua University.
(§2) Formation of the biofilms was measured spectrophotometrically in U-bottom polystyrene microplates (Corning Incorporated, NY).
(§3) The biofilm adhering to the walls of the microplates was collected via washing with PBS, suspended in 10% sarbosyl and measured spectrophotometrically at 492 nm.
The same method was used for calculating the residual quantity of biofilm after treatment with NAC and fosfomycin, alone or associated, on Escherichia coli. For this purpose, biofilms with two different degrees of maturity: initial (5 hours) and fully consolidated (48 hours) were exposed to appropriate concentrations of NAC (from 8 mg/ml to 0.007 mg/ml) with addition of fosfomycin at the concentrations attainable in vivo in the urine.

For assay [3] the test system is unchanged. In words: Formation of biofilm, Crystal Violet staining in polystyrene microplates, measured at 492 nm. It counts as cell-based. The settings on record: various concentrations of NAC added to the cultures; three strains out of four. As to the method:
as §1, §2
In more detail, the effect of NAC on the formation of biofilms was evaluated as follows: overnight cultures in Tryptic Soy Broth (TSB) with addition of glucose (0.25%). (TSBG) were diluted 1:100 in TSBG. These suspensions (100 μl each) were added to suitable dilutions of NAC at concentrations ranging from 8 mg/ml to 0.007 mg/ml respectively. After incubation at 37° C. for 24 hours, the microplates were washed three times with 10 mM phosphate buffer pH 7.4 (PBS), treated with Bouin fixative and then stained with Crystal Violet (0.01%).
as §3

A further assay concerns S. epidermidis. Particulars: J. Ant. Chem., 39, 643, (1997); cited from earlier work.
In assay [4] the test system is Escherichia coli cells of the biofilm. The assay can be described thus: Bacterial viability of biofilm cells: sonication, seeding, count of viable units (CFU/ml). The format is cell-based. Particulars: for inhibition at 2000 µg/mL: Escherichia coli, fosfomycin 2000 mg/l alone, read-out: reductions in viable units. As to the method: as §1
At the same time the biofilms treated in this way were submitted to sonication in order to disperse the cells that were still adhering, which were seeded on rich medium after suitable dilution for calculating the viable units that survived the various treatments.

Where “and” joins values, the source holds several entries; their conditions need not be identical. Equal values may be shown once. Read-outs that look alike come from different tables or passages of the source.

Consider `CC(=O)N[C@@H](CS)C(=O)O` [NAC, N-acetylcysteine], for which the “ability to disrupt biofilms” value in assay [1] is listed as “ability to disrupt biofilms”. Further, the “changes in bacterial growth” value with Escherichia coli was “did not cause appreciable changes”. In assay [2] (initial (5 hours) biofilms, strains not named), the “reduction of initial biofilms” value is 51.7% and 64.0% and 58.4%. The “reduction of mature biofilms” value is 25.2% in assay [2] (Escherichia coli 169); 64.3% and 60.2% and 67.7% in assay [2] (three strains out of four). Moreover, in assay [3], the “reductions in biofilm (formation)” value is “greater than 50%”. In the assay with S. epidermidis, the “inhibition of biofilm formation” value is recorded as “inhibit their formation”.

Consider `C[C@@H]1O[C@@H]1P(=O)(O)O` [fosfomycin, Fosfomycin], for which the inhibition at 2000 µg/mL was 36 to 85.7% in assay [4] (fully consolidated biofilms) and 98 to 99.5% in assay [4] (initial biofilms). For the same compound, the “reductions in CFU/ml” value in assay [4] (fosfomycin 128 mg/l alone) is listed as “less than 1 logarithm”.
